# Test results from patent publication US20260174677A1, “METHODS OF TREATING INSULIN RESISTANCE AND ASSOCIATED DISORDERS” (The University of Melboune, priority 2022, published 2026).
# Test: I.C.V. fluorosamine in mouse model of late-stage type-2 diabetes (HFHS plus low dose streptozotocin)
# Assay type: in vivo
# Conditions: I.C.V. daily for 14 days, HFHS plus low dose streptozotocin mice
# Description: Mice were maintained on a 12 h light-dark cycle in a temperature-controlled high-barrier facility with free access to food and water per NHMRC Australian Code of Practice for the Care and Use of Animals. C57BL/6J and Balb/C mice were sourced from the Animal Resources Centre, Australian, whereas Agrp-IRES-Cre (Strain #:012899), db/db (strain #: 000697), Npy-GFP (Strain #:006417), Pomc-GFP (Strain #:009593), LSL-Cas9 (Strain #:028551), NZO (Strain #:002105) mice were sourced from Jackson Laboratories, USA. […]
# Metabolic measurements were undertaken in the Melbourne Mouse Metabolic Phenotyping Platform (The University of Melbourne, Australia). […] The areas under glucose excursion curves were determined and expressed as mmol/1×min. Fasted (12 h fast) plasma insulin or glucose levels were determined using a Rat/Mouse Insulin ELISA (EZRMI-13K, Merck Millipore, CA) or an Accu-Check glucometer respectively. The HOMA-IR was calculated using the equation [(glucose×insulin)/405]. Adiposity was measured using TD-NMR minispec (Bruker Optics Inc., Billerica, MA). […]
smiles,measurement,value
"CC(=O)NC1C(OC(C)=O)OC(COC(C)=O)[C@@H](F)C1OC(C)=O (stereo partly shown) [fluorosamine, per-O-acetylated-4-F-N-acetylglucosamine]","remission of metabolic disease (daily blood glucose, glucose tolerance)",promote the remission of metabolic disease
